The results in this text go back to ChEMBL document CHEMBL3621157, “Design, synthesis and biological evaluation of novel 1,2,4-triazolo and 1,2,4-triazino[4,3-a]quinoxalines as potential anticancer and antimicrobial agents” (2015).

Converted amounts (≈) assume the structure as drawn.

Common to all, as to format: functional
For assay [1], the system named is Staphylococcus aureus. Description: Antimicrobial activity against Staphylococcus aureus DSM 1104 incubated at 37 degC for 24 hrs by cup diffusion method.
Assay [2] relates to Bacillus subtilis. As to the kind of experiment: Antimicrobial activity against Bacillus subtilis ATCC 6633 incubated at 37 degC for 24 hrs by cup diffusion method.
In assay [3] the test system is Pseudomonas aeruginosa. As to the kind of experiment: Antimicrobial activity against Pseudomonas aeruginosa ATCC 10145 incubated at 37 degC for 24 hrs by cup diffusion method.
Assay [4] relates to Escherichia coli. As to the kind of experiment: Antimicrobial activity against Escherichia coli ATCC 11775 incubated at 37 degC for 24 hrs by cup diffusion method.
The subject of assay [5] is Candida albicans. As to the kind of experiment: Antimicrobial activity against Candida albicans DSM 70014 incubated at 37 degC for 48 hrs by cup diffusion method.
Assay [6] deals with Staphylococcus aureus. As to the kind of experiment: Antimicrobial activity against Staphylococcus aureus DSM 1104 incubated for 24 hrs by two-fold serial broth dilution method. The following applies: DSM 1104, 24 h.
Assay [7] relates to Staphylococcus aureus. As to the kind of experiment: Antimicrobial activity against Staphylococcus aureus DSM 1104 incubated for 24 hrs followed by transfer of colonies to Muller-Hinton agar plate and measured after 18 hrs by two-fold serial broth dilution method.
In assay [8] the test system is Bacillus subtilis. As to the kind of experiment: Antimicrobial activity against Bacillus subtilis ATCC 6633 incubated for 24 hrs by two-fold serial broth dilution method. The note with it: ATCC 6633, 24 h.
The test system of assay [9] is Bacillus subtilis. Description: Antimicrobial activity against Bacillus subtilis ATCC 6633 incubated for 24 hrs followed by transfer of colonies to Muller-Hinton agar plate and measured after 18 hrs by two-fold serial broth dilution method.
Assay [10] deals with Pseudomonas aeruginosa. Description: Antimicrobial activity against Pseudomonas aeruginosa ATCC 10145 incubated for 24 hrs by two-fold serial broth dilution method. The following applies: ATCC 10145, 24 h.
For assay [11], the system named is Pseudomonas aeruginosa. As to the kind of experiment: Antimicrobial activity against Pseudomonas aeruginosa ATCC 10145 incubated for 24 hrs followed by transfer of colonies to Muller-Hinton agar plate and measured after 18 hrs by two-fold serial broth dilution method.
In assay [12] the test system is Escherichia coli. Description: Antimicrobial activity against Escherichia coli ATCC 11775 incubated for 24 hrs by two-fold serial broth dilution method. The note with it: ATCC 11775, 24 h.
The subject of assay [13] is Escherichia coli. As to the kind of experiment: Antimicrobial activity against Escherichia coli ATCC 11775 incubated for 24 hrs followed by transfer of colonies to Muller-Hinton agar plate and measured after 18 hrs by two-fold serial broth dilution method.
The subject of assay [14] is Candida albicans. Description: Antimicrobial activity against Candida albicans DSM 70014 incubated for 48 hrs by two-fold serial broth dilution method. The note with it: DSM 70014, 48 h.
Assay [15] has as its system Candida albicans. Description: Antimicrobial activity against Candida albicans DSM 70014 incubated for 48 hrs followed by transfer of colonies to Muller-Hinton agar plate and measured after 18 hrs by two-fold serial broth dilution method.
The subject of assay [16] is A498. As to the kind of experiment: Growth inhibition of human A498 cells at 10 uM incubated for 48 hrs by sulforhodamine B assay. The following applies: A498, 48 h, read-out: GI.
Assay [17] relates to UO-31. As to the kind of experiment: Growth inhibition of human UO31 cells at 10 uM incubated for 48 hrs by sulforhodamine B assay. The following applies: UO-31, 48 h, read-out: GI.
The subject of assay [18] is SNB-75. As to the kind of experiment: Growth inhibition of human SNB75 cells at 10 uM incubated for 48 hrs by sulforhodamine B assay. The note with it: SNB-75, 48 h, read-out: GI.

`Brc1ccc(C2=NN=C3C(Cc4ccccc4)=Nc4ccccc4N3C2)cc1`: the “inhibition zone (IZ)” value in [1] stood at 12 mm; in assay [2], 12 mm; in [3], 12 mm; in assay [4] it was 14 mm; in [5] it was 14 mm. Besides, the MIC in [6] was found to be 50 µg/mL (≈ 116 µM); in assay [8] it was 50 µg/mL (≈ 116 µM); in [10] it was 100 µg/mL (≈ 233 µM); in assay [12], 50 µg/mL (≈ 116 µM); in [14], 50 µg/mL (≈ 116 µM). Further, the MBC in assay [7] turned out to be 50 µg/mL (≈ 116 µM); in assay [9], 50 µg/mL (≈ 116 µM); in [11], 100 µg/mL (≈ 233 µM); in [13], 50 µg/mL (≈ 116 µM). The MFC in assay [15] was found to be 50 µg/mL (≈ 116 µM).

In the case of `CC1(C)S[C@@H]2[C@H](NC(=O)[C@H](N)c3ccccc3)C(=O)N2[C@H]1C(=O)O` [AMPICILLIN], the minimum inhibitory concentration (MIC) in assay [6] is 5 µg/mL (≈ 14.3 µM); in assay [8] it was 12.5 µg/mL (≈ 35.8 µM); in assay [10], 50 µg/mL (≈ 143 µM); in [12] it was 10 µg/mL (≈ 28.6 µM).

As to `CCOC(=O)C/C(C)=N\Nc1nc2ccccc2nc1Cc1ccccc1`, the “inhibition zone (IZ)” value in [1] was found to be 15 mm; in assay [2], 12 mm; in [3] it was 12 mm; in [4], 14 mm; in assay [5] it was 14 mm. Also, the minimal inhibitory concentration (MIC) stood at 100 µg/mL (≈ 276 µM) in [6]; 50 µg/mL (≈ 138 µM) in assay [8]; 100 µg/mL (≈ 276 µM) in [10]; 50 µg/mL (≈ 138 µM) in assay [12]; 50 µg/mL (≈ 138 µM) in assay [14]. Besides, the minimum bactericidal concentration (MBC) in assay [7] is 100 µg/mL (≈ 276 µM); in assay [9] it was 50 µg/mL (≈ 138 µM); in assay [11], 100 µg/mL (≈ 276 µM); in assay [13], 100 µg/mL (≈ 276 µM). In assay [15], the MFC turned out to be 100 µg/mL (≈ 276 µM). In addition, the inhibition of growth at 10 µM was 17.8% in [16] and 15.8% in assay [17].

As for `O=[N+]([O-])c1ccc(-c2nnc3c(Cc4ccccc4)nc4ccccc4n23)cc1`, the “inhibition zone (IZ)” value in assay [1] stood at 14 mm; in assay [2], 12 mm; in assay [3] it was 12 mm; in [4], 14 mm; in [5] it was 15 mm. In addition, the MIC in assay [6] came to 50 µg/mL (≈ 131 µM); in assay [8], 100 µg/mL (≈ 262 µM); in assay [10], 50 µg/mL (≈ 131 µM); in assay [12], 100 µg/mL (≈ 262 µM); in assay [14], 25 µg/mL (≈ 65.5 µM). For the same compound, the minimal bactericidal concentration (MBC) in assay [7] was found to be 100 µg/mL (≈ 262 µM); in assay [9], 100 µg/mL (≈ 262 µM); in [11], 50 µg/mL (≈ 131 µM); in assay [13] it was 100 µg/mL (≈ 262 µM). The compound further registered an MFC in assay [15] of 50 µg/mL (≈ 131 µM).

In the case of `CCOC(=O)Cc1nnc2c(Cc3ccccc3)nc3ccccc3n12`, the “inhibition zone (IZ)” value in assay [1] is reported as 14 mm; in assay [2], 14 mm; in assay [3] it was 14 mm; in assay [4], 15 mm; in [5] it was 12 mm. Also, the minimal inhibitory concentration (MIC) in assay [6] is 50 µg/mL (≈ 144 µM); in assay [8] it was 100 µg/mL (≈ 289 µM); in assay [10] it was 100 µg/mL (≈ 289 µM); in [12], 100 µg/mL (≈ 289 µM); in [14], 25 µg/mL (≈ 72.2 µM). The MBC in assay [7], in assay [9], in assay [11] and in assay [13] was 100 µg/mL (≈ 289 µM) each time. The same compound displayed an MFC in assay [15] of 25 µg/mL (≈ 72.2 µM).

Take `CCOC(=O)c1nnc2c(Cc3ccccc3)nc3ccccc3n12`: the “inhibition zone (IZ)” value was 14 mm in [1]; 13 mm in assay [2]; 10 mm in assay [3]; 12 mm in assay [4]; 15 mm in [5]. The MIC in assay [6] is 50 µg/mL (≈ 150 µM); in assay [8], 50 µg/mL (≈ 150 µM); in assay [10] it was 100 µg/mL (≈ 301 µM); in assay [12], 50 µg/mL (≈ 150 µM); in assay [14], 25 µg/mL (≈ 75.2 µM). The MBC in [7] worked out at 50 µg/mL (≈ 150 µM); in [9] it was 100 µg/mL (≈ 301 µM); in [11], 100 µg/mL (≈ 301 µM); in assay [13], 50 µg/mL (≈ 150 µM). The compound further registered a minimal fungicidal concentration (MFC) in [15] of 50 µg/mL (≈ 150 µM). Moreover, the inhibition of growth at 10 µM in [18] stood at 10.3%; in [17] it was 15.1%.

As to `Clc1ccccc1C(c1ccccc1)(c1ccccc1)n1ccnc1` [CLOTRIMAZOLE], the MIC in [14] is 5 µg/mL (≈ 14.5 µM).
